Test results as given in patent US10883083B2, “Tissue-engineered three-dimensional model for tumor analysis” (The Trustees of Columbia University in the City of New York, priority 2013, dated 2021).

Tested on: ES cells (SK-N-MC) in Col 1-HA scaffold
Experiment: Blebbistatin treatment of bioengineered tumor: cell morphology and exosome size (NTA)
Format: cell-based, human
Details: blebbistatin-treated vs untreated controls, 3D setting
Protocol: To seed 3D Collagen 1-HA scaffolds, single-cell suspension of SK-N-MC cells was adjusted to the cell concentration of 1×10^6 cells/mL in a 50 ml Falcon tube. A total of 15 scaffolds were added to 30 mL of cell suspension, and the Falcon was set onto a rotary platform for 3 hours at 37° C./5% CO2. Cell seeded scaffolds were then transferred to non-treated wells in 12-multiwell plates (Nunc) and cultured in 2 mL of medium at 37° C./5% CO2. Cell numbers and were determined by Quant-iT PicoGreen dsDNA Assay Kit (Life technologies) according to the manufacturer's instructions. Exosome isolation and size analysis: Cells cultured in monolayers, aggregates and 3D scaffolds were washed with PBS twice and cultured in EMEM supplemented with 10% (v/v) Exosome-depleted FBS (SBI) and 1% penicillin/streptomycin for 12 h. The supernatants were collected and exosomes were isolated from cell culture media using the total exosome isolation kit (Invitrogen), according to the manufacturer's protocol. Exosomes from plasma samples were also isolated using the total exosome isolation kit (Invitrogen). The size distributions of exosomes were determined by Nanoparticle Tracking Analysis (NTA) using the Nanosight machine. To probe a possible mechanism underlying the observed effects of the tumor environment on exosome size, we modified the tension forces within the cells.

Cc1ccc2c(c1)C(=O)C1(O)CCN(c3ccccc3)C1=N2 (centres unmarked) [Blebbistatin]
Cell morphology / cell aggregates: partial disassembly of cell aggregates | Exosome size distribution: shift of the exosome size distribution curve to higher values
